Common to all, as to format: cell-based
The subject of assay [1] is human uroepithelial cells.
The test system of assay [2] is human uroepithelial cells. The source holds these as a separate data set.
Assay [3] deals with human uroepithelial cells. The source holds these as a separate data set.

This is an account of results in patent US9943576B2 (priority 2014, dated 2018).

As to `OCc1ccccc1` [Benzyl Alcohol], the “Typical Results” value in assay [1] was “Slight Increase (1% at 2”.

For `CCOCCOCCO` [Diethylene glycol mono-ethyl ether], the “Typical Results” value in assay [1] is on record as “No Effect”.

Consider `O=C(O)CN(CCN(CC(=O)O)CC(=O)O)CC(=O)O` [EDTA], for which the “penetration of fluorescent gelatin, RFU relative to untreated control” value in assay [2] came to 300%. In addition, the “Typical Results” value in assay [1] is listed as “Increase”.

For the compound `CCCCCCCC/C=C\CCCCCCCC(=O)OCCOCC(OCCO)C1OCC(OCCO)C1OCCO` (stereo not shown) [Tween 80], the “Typical Results” value in assay [1] is listed as “Increase (Dose response)”.

For the compound Benzalkonium bromide, the “Typical Results” value in assay [1] is “No Effect”.

For the compound Nonoxynol 9, the “Typical Results” value in assay [1] is “Increase (Dose response)”. Besides, the “increase vs saline in the amount of BoNT/A that permeated the in vitro urothelium” value in assay [3] amounted to 3 fold.

Regarding Poly-L-Arginine, the “Typical Results” value in assay [1] is given as “Inhibited”.

Poly-L-lysine Hydrobromide: the “Typical Results” value in assay [1] is given as “Increase (Dose response)”.

Turning to Protamine sulfate, the “Typical Results” value in assay [1] was “Inhibited”.

Regarding octyl phenol ethoxylate [Triton-X100], the “Typical Results” value in assay [1] is on record as “Increase (Dose response)”. Moreover, the “increase vs saline in the amount of BoNT/A that permeated the in vitro urothelium” value in assay [3] was 3.6 fold.
